Activity calls are given as the source filed them. No cut-off for these calls is given here.
Columns and labels:
Mus musculus [1] = assay: Antiatherosclerotic activity in hypercholesterolemic ApoE-/- mouse model assessed as decrease in plasma LDL-C level administered intraperitoneally measured after 21 days; assay type: functional, organism-based; settings: dose 5-15 mg/kg/day, route ip, time 21.0 day
Huh-7 [2] = assay: Cytotoxicity against human Huh-7 cells upto 1000 nM incubated for 24 hrs by MTT assay; assay type: toxicity, cell-based; settings: huh-7, 24 h, 1 µM
Mus musculus [3] = assay: Antiatherosclerotic activity in hypercholesterolemic ApoE-/- mouse model assessed as decrease in plasma PCSK9 level at 5 to 15 mg/kg/day, ip measured after 21 days; assay type: functional, organism-based; settings: dose 5-15 mg/kg/day, time 21.0 day
Mus musculus [4] = assay: Synergistic antiatherosclerotic activity in hypercholesterolemic ApoE-/- mouse model assessed as effect on plasma GSH level at 5 to 15 mg/kg, ip administered daily for 3 weeks in presence of SIMV; assay type: functional, organism-based; settings: dose 5-15 mg/kg
Huh-7 [5] = assay: Effect on LC3B level in human Huh-7 cells upto 100 nM incubated for 24 hrs by Western blot analysis; assay type: functional, cell-based
Mus musculus [6] = assay: Antiatherosclerotic activity in hypercholesterolemic ApoE-/- mouse model assessed as decrease in plaque area in […] at 5 to 15 mg/kg/day, ip measured after 21 days; assay type: functional, organism-based; settings: dose 5-15 mg/kg/day, time 21.0 day
Mus musculus [7] = assay: Synergistic antiatherosclerotic activity in hypercholesterolemic ApoE-/- mouse model assessed as decrease in liver oxidative stress at 5 to 15 mg/kg, ip administered daily for 3 weeks in presence of SIMV; assay type: functional, organism-based; settings: dose 5-15 mg/kg
Mus musculus [8] = assay: Synergistic antiatherosclerotic activity in hypercholesterolemic ApoE-/- mouse model assessed as effect on plasma TG level at 5 to 15 mg/kg, ip administered daily for 3 weeks in presence of SIMV; assay type: functional, organism-based; settings: dose 5-15 mg/kg
Mus musculus [9] = assay: Antiatherosclerotic activity in hypercholesterolemic ApoE-/- mouse model assessed as decrease in oxidative stress at 5 to 15 mg/kg/day, ip measured after 21 days; assay type: functional, organism-based; settings: dose 5-15 mg/kg/day, time 21.0 day
Mus musculus [10] = assay: Antiatherosclerotic activity in hypercholesterolemic ApoE-/- mouse model assessed as decrease in liver damage at 5 to 15 mg/kg/day, ip measured after 21 days; assay type: functional, organism-based; settings: dose 5-15 mg/kg/day, time 21.0 day
Mus musculus [11] = assay: Antiatherosclerotic activity in hypercholesterolemic ApoE-/- mouse model assessed as decrease in plasma LDL-C level administered intraperitoneally measured after 14 days; assay type: functional, organism-based; settings: dose 15.0 mg/kg/day, route ip, time 14.0 day
Mus musculus [12] = assay: Synergistic antiatherosclerotic activity in hypercholesterolemic ApoE-/- mouse model assessed as effect on plasma LDH level at 5 to 15 mg/kg, ip administered daily for 3 weeks in presence of SIMV; assay type: functional, organism-based; settings: dose 5-15 mg/kg
Mus musculus [13] = assay: Synergistic antiatherosclerotic activity in hypercholesterolemic ApoE-/- mouse model assessed as decrease in liver cholesterol level at 5 to 15 mg/kg, ip administered daily for 3 weeks in presence of SIMV; assay type: functional, organism-based; settings: dose 5-15 mg/kg
Mus musculus [14] = assay: Antiatherosclerotic activity in hypercholesterolemic ApoE-/- mouse model assessed as decrease in vacuolization in liver at 5 to 15 mg/kg/day, ip measured after 21 days by Masson staining based analysis; assay type: functional, organism-based; settings: dose 5-15 mg/kg/day, time 21.0 day
Mus musculus [15] = assay: Antiatherosclerotic activity in hypercholesterolemic ApoE-/- mouse model assessed as decrease in liver PCSK9 level at 5 to 15 mg/kg/day, ip measured after 21 days by immunohistochemistry analysis; assay type: functional, organism-based; settings: dose 5-15 mg/kg/day, time 21.0 day
Mus musculus [16] = assay: Antiatherosclerotic activity in hypercholesterolemic ApoE-/- mouse model assessed as increase in liver LDLR level at 5 to 15 mg/kg/day, ip measured after 21 days by Western blot analysis; assay type: functional, organism-based; settings: dose 5-15 mg/kg/day, time 21.0 day
Mus musculus [17] = assay: Antiatherosclerotic activity in hypercholesterolemic ApoE-/- mouse model assessed as decrease in plaque area in aortic arch at 5 to 15 mg/kg/day, ip measured after 21 days by Aortic oil red O staining based analysis; assay type: functional, organism-based; settings: dose 5-15 mg/kg/day, time 21.0 day
Mus musculus [18] = assay: Synergistic antiatherosclerotic activity in hypercholesterolemic ApoE-/- mouse model assessed as decrease in plaque area in aortic arch at 5 to 15 mg/kg, ip administered daily for 3 weeks in presence of SIMV by Aortic oil red O staining based analysis; assay type: functional, organism-based; settings: dose 5-15 mg/kg
Huh-7 [19] = assay: Effect on SREBP2 mRNA level in human Huh-7 cells at 20 to 500 nM incubated for 12 hrs by qRT-PCR analysis; assay type: functional, cell-based; settings: dose 20-500 nM
Mus musculus [20] = assay: Antiatherosclerotic activity in hypercholesterolemic ApoE-/- mouse model assessed as decrease in vacuolization in liver at 5 to 15 mg/kg/day, ip measured after 21 days by H and E staining based analysis; assay type: functional, organism-based; settings: dose 5-15 mg/kg/day, time 21.0 day
Mus musculus [21] = assay: Synergistic antiatherosclerotic activity in hypercholesterolemic ApoE-/- mouse model assessed as decrease in liver fibrosis at 5 to 15 mg/kg, ip administered daily for 3 weeks in presence of SIMV by Masson staining based analysis; assay type: functional, organism-based; settings: dose 5-15 mg/kg
Huh-7 [22] = assay: Effect on PCSK9 mRNA level in human Huh-7 cells at 20 to 500 nM incubated for 12 hrs by qRT-PCR analysis; assay type: functional, cell-based; settings: dose 20-500 nM
Mus musculus [23] = assay: Synergistic antiatherosclerotic activity in hypercholesterolemic ApoE-/- mouse model assessed as increase in liver LDL uptake capacity at 5 to 15 mg/kg, ip administered daily for 3 weeks in presence of SIMV by Western blot analysis; assay type: functional, organism-based; settings: dose 5-15 mg/kg

SMILES: COc1cc2c(cc1OCCCCN1C(=O)/C(=C\c3cc(Br)c(O)c(OC)c3)c3cc(Br)ccc31)C(C)(CC(=O)Nc1nccs1)NCC2 (stereo not drawn)
- Activity (Mus musculus [1]): Dose-Dependent Effect
- Activity (Huh-7 [2]): Non-Toxic
- Activity (Mus musculus [3]): Active
- Activity (Mus musculus [4]): Active
- Activity (Huh-7 [5]): inactive
- Activity (Mus musculus [6]): Active
- Activity (Mus musculus [7]): Active
- Activity (Mus musculus [8]): Active
- Activity (Mus musculus [9]): Active
- Activity (Mus musculus [10]): Active
- Activity (Mus musculus [11]): Dose-Dependent Effect
- Activity (Mus musculus [12]): Active
- Activity (Mus musculus [13]): Active
- Activity (Mus musculus [14]): Active
- Activity (Mus musculus [15]): Active
- Activity (Mus musculus [16]): Active
- Activity (Mus musculus [17]): Active
- Activity (Mus musculus [18]): Active
- Activity (Huh-7 [19]): inactive
- Activity (Mus musculus [20]): Active
- Activity (Mus musculus [21]): Active
- Activity (Huh-7 [22]): inactive
- Activity (Mus musculus [23]): Active

— ChEMBL document CHEMBL5537152, “Targeted Degradation of PCSK9 In Vivo by Autophagy-Tethering Compounds” (J Med Chem, 2024)
